Data on one substance can be found in patent publication US20200182861A1, “METHOD FOR DIFFERENTIATION OF PLURIPOTENT STEM CELLS INTO VASCULAR BED CELLS” (Hoffmann-La Roche Inc., priority 2011, published 2020).

Experiment [1] relates to ICAM1. The experiment can be described thus: Pro-inflammatory cytokine response assay, cell-based ELISA. On the set-up: species or system human. To be noted: 1 nM, SC-derived ECs. How it is done: FIG. 15A: Pro-inflammatory cytokine response assay. SC-derived ECs upregulate the expression of the adhesion molecule ICAM1 upon pro-inflammatory cytokine administration. Cell-based ELISA was used to measure the activation of SC-derived endothelial cells in response to 1 nM TNFα.
(§1) 20 000 Stem Cell-derived endothelial cells/well were seeded onto 96-well plates and cultured for 2 days in EGM-2 medium (Lonza) until confluence. Media was changed with EGM-2 medium supplemented with 1 nM TNFα (R&D Systems). After an incubation of 24 hours SC-derived ECs were briefly PBS-washed and PFA-fixed Primary antibodies for human anti-ICAM and anti-E-Selectin were purchased from R&D Systems. An anti-mouseIgG/biotinylated (Amersham) as secondary antibody and a Streptavidin/Peroxidase complex (Amersham) were used. Luminescence was quantified in a microplate reader.
On the technique in general: An ELISA detects its analyte on a solid surface through an enzyme-linked reagent.

Experiment [2] deals with E-SELECTIN
Described as above. On the set-up: species or system human. The note with it: 1 nM, SC-derived ECs. How it is done:
FIG. 15B: Pro-inflammatory cytokine response assay. SC-derived ECs upregulate the expression of the adhesion molecule E-SELECTIN upon pro-inflammatory cytokine administration. Cell-based ELISA was used to measure the activation of SC-derived endothelial cells in response to 1 nM TNFα.
as §1

Experiment [3] concerns HL60 cells with SC-derived ECs. Briefly: Leukocyte-endothelial adhesion assay. The experiment is classed as cell-based, human. The note with it: SC-derived ECs stimulated, 1 nM. How it is done: FIG. 16: Leukocyte-endothelial adhesion assay. Activated endothelial cells present adhesion molecules for the recruitment leukocytes. The response to 1 nM TNFα was studied by co-cultivating Calcein-stained HL60 cells with SC-derived ECs. Adhesion of HL60 cells to endothelial cells was quantified by measuring the fluorescence intensity.
2×10^4 Stem Cell-derived endothelial cells/well were seeded onto 96-well plates and cultured for 2 days in EGM-2 medium (Lonza) until confluence. Media was changed with EGM-2 medium supplemented with 1 nM TNFα (R&D Systems). SC-derived ECs were TNFα-stimulated for 4 hours. Thereafter 1.5×10^5 Calcein-labeled HL60 cells were added to each 96 well. After an incubation of one hour medium was removed and Sc-ECs were PBS-washed. Lyse the plate with 1% NP-40 detergent solution for 15 minutes. Supernatants were transferred into optiplates and fluorescence measured in a microplate reader.
To determine whether the differentiation system generates bona fide ECs, we challenged the SC-derived ECs with proinflammatory cytokines and analyzed for an activated expression of effectors of immune cell migration. […] We further confirmed by flow cytometry the presence of ICAM1 and E-SELECTIN upon TNF-α as well as […] stimulation (FIG. 16). HLA-ABC expression served as control to analyze a general und cell type unspecific response to proinflammatory cytokines. […]

Consider TNFα, for which the ICAM1 expression result in experiment [1] is reported as “significantly upregulated”. For the same substance, the E-SELECTIN expression entry in experiment [2] is recorded as “significantly upregulated”. Further, the “adhesion / recruitment of HL60 leukocytes” value in experiment [3] was “significantly enhanced”.
